{"source": "patent US5770201A", "about": "“HA-2 antigenic peptide” (Rijsuniversiteit Te Leiden, priority 1994, dated 1998)", "tested_on": "T2 cell line for lysis by clone 5H17", "experiment": "51Cr release assay: peptide sensitization of T2 for lysis by HA-2 specific CTL clone 5H17", "type": "cell-based, human", "conditions": "T2 cells", "note": "Where no end group is shown, it is not given here."}
{"sequence": "YXGEVXVSV (X: residue not identified in the source) [synthetic peptide mixture, X stands for L or I]", "values": [{"measurement": "HA-2 specific sensitizing CTL activity (lysis of T2)", "result": "resulted in lysis of T2"}]}
